{"source": "patent US20110009351A1", "about": "“SCREENING ASSAY TO IDENTIFY CORRECTORS OF PROTEIN TRAFFICKING DEFECTS” (Traffick Therepeutics Inc., priority 2007, published 2011)", "assay_type_in_all_cases": "cell-based", "key": {"[1]": {"target": "T1, ΔF508-CFTR (Homo sapiens, UniProt P13569, DEL508-508)", "T1 sequence (P13569 with tags, fused parts or gaps DEL508-508)": "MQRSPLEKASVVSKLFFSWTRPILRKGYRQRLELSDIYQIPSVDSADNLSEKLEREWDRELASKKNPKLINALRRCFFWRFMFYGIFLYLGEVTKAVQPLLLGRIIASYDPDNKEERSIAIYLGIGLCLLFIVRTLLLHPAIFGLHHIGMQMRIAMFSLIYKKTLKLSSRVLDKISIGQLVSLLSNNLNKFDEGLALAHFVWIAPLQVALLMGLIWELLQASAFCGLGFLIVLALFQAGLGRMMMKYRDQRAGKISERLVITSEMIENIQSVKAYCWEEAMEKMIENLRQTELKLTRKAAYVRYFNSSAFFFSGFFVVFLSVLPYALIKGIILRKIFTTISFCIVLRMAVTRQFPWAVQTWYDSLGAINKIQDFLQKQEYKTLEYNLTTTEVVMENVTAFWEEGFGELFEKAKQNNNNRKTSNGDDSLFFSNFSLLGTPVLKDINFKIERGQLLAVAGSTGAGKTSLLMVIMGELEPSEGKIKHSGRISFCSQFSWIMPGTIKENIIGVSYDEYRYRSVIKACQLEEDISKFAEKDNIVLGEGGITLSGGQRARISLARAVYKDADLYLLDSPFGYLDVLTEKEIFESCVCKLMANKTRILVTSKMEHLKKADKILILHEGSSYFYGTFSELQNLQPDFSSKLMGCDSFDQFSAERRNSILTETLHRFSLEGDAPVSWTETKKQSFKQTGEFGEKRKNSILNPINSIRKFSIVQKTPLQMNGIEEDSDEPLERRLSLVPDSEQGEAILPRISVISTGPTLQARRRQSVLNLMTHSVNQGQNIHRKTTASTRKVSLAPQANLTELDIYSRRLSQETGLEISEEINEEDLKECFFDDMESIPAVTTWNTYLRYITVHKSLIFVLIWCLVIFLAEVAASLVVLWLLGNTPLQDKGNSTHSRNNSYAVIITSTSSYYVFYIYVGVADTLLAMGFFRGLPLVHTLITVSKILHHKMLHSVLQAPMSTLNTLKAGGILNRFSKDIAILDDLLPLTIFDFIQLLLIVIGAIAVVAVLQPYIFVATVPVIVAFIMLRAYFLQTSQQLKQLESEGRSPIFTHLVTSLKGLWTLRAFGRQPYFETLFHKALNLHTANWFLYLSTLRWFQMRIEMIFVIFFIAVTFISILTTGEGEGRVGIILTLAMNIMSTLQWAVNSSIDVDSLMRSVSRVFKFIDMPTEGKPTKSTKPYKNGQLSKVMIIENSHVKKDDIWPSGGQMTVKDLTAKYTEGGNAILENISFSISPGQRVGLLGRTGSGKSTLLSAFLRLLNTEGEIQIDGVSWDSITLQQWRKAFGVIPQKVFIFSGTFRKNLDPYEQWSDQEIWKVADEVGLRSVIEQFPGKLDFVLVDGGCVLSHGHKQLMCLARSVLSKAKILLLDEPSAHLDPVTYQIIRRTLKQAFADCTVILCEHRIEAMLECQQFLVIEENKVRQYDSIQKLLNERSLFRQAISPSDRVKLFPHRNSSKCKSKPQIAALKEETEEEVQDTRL", "design": "which was then ligated into full length pNUT-CFTR linearized using Hpa1 and Pml1; expressed in transfected cells", "conditions": "for hit in screen (class letter) / hit in screen (score): Prestwick library, initial corrector assay; for hit in screen (class letter): BHK cells; for hit in screen (score): standard deviations above untreated controls", "method_in_brief": "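BHK cells stably expressing 3HA-tagged ΔF508-CFTR (tags in fourth extracellular loop) treated with compound at 20 μM final for 24 h at 37° C. Surface ΔF508-CFTR measured on fixed, non-permeabilised cells by anti-HA/FITC immunofluorescence (488/510 nm), relative to untreated-well background; hits retested in duplicate, intrinsically fluorescent compounds excluded.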"}, "[2]": {"target": "T1, ΔF508-CFTR", "experiment": "three stage ELISA of CFTR surface expression, BHK cells expressing ΔF508-CFTR", "design": "which was then ligated into full length pNUT-CFTR linearized using Hpa1 and Pml1; expressed in transfected cells", "conditions": "10% glycerol or 1 mM sodium 4-phenylbutyrate, 24 hours", "description": "Cells were screened for CFTR surface expression using a three stage ELISA system (Pierce Inc., USA). Briefly, BHK cells expressing 3HA-tagged ΔF508-CFTR were seeded in 96-well plates (Corning, USA) at 30,000 cells per well and incubated for 24 h at 37° C. Each well was treated with a test compound for 24 h, then cells were fixed in 4% paraformaldehyde solution and washed with PBS containing 0.1% bovine serum albumin and 0.05% tween-20. Cells were blocked for 1 h in solution containing 3% normal horse serum in PBS at room temperature. […] After washing four more times, the cells were exposed to 3,3′,5,5′ tetramethylbenzidine (Pierce Inc., USA) for 15 min, sulphuric acid (2M) was added, and absorbance was measured at 450 nm (Power-Wavex Bio-tek Instruments).\nTo determine if cell surface expression of CFTR could be quantified in a high-throughput screen using this assay, cells expressing tagged versions of wt or ΔF508-CFTR were seeded in 96-well plates, treated with 10% glycerol and monitored as light absorbance using an enzyme-linked assay system. As expected, untreated ΔF508-CFTR cells had low absorbance since they expressed little CFTR on their cell surface under control conditions (FIG. 3A)."}, "[3]": {"target": "T2, F508del CFTR (Homo sapiens, UniProt P13569, DEL508-508)", "T2 construct": "expressed in transfected cells; host or cells: HEK293 Griptite cells stably expressing F508del CFTR, transiently transfected with halide-sensitive eYFP", "T2 sequence (P13569 with tags, fused parts or gaps DEL508-508)": "as above", "experiment": "YFP fluorescence quenching functional assay (iodide influx), HEK293 cells with F508del CFTR and halide sensitive YFP", "conditions": "10 μM, 24 h; for % YFP quench: nc = 100% pc = 69.2", "method_in_brief": "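HEK293 Griptite cells stably expressing F508del CFTR, transiently transfected with halide-sensitive eYFP, treated 24 h with 10 μM compound in triplicate, then stimulated 20 min with 25 μM forskolin, 45 μM IBMX and 50 μM genistein. YFP quench after 50 mM iodide imaged 15 times over 40 s on 150-300 cells/well.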"}}, "data": [{"compound": "O=C([O-])CCCc1ccccc1.[Na+]", "note": "[sodium 4-phenylbutyrate]", "values": [{"measurement": "increase in signal, suitability as positive control for the corrector assay screen", "setting": "[1]; kifunesine 100 μM, Sodium 4 Phenylbutyrate 1 mM, curcumin 40 μM, 24 hours", "result": "not sufficient to act as a positive control"}, {"measurement": "plasma membrane signal (absorbance), words", "setting": "[2]", "result": "increased the plasma membrane signal"}]}, {"compound": "Cyanocobalamin", "values": [{"measurement": "functional correction in YFP quenching assay", "setting": "[3]", "result": "not functional"}, {"measurement": "% YFP quench", "setting": "[3]", "result": 100, "unit": "%"}, {"measurement": "hit in screen (class letter)", "setting": "[1]", "result": "W (Medium and weak hits were defined as compounds giving a cell fluorescence signal that was between 2 and 3 or 1 and 2 standard deviations, respectively, above untreated control wells)"}, {"measurement": "hit in screen (score)", "setting": "[1]", "result": 1.1}]}, {"compound": "Cytisine (−)", "values": [{"measurement": "% YFP quench", "setting": "[3]", "result": 97, "unit": "%"}, {"measurement": "hit in screen (class letter)", "setting": "[1]", "result": "M (Medium and weak hits were defined as compounds giving a cell fluorescence signal that was between 2 and 3 or 1 and 2 standard deviations, respectively, above untreated control wells)"}, {"measurement": "hit in screen (score)", "setting": "[1]", "result": 2.0}]}, {"compound": "Oubinidine", "values": [{"measurement": "% YFP quench", "setting": "[3]", "result": 104, "unit": "%"}, {"measurement": "hit in screen (class letter)", "setting": "[1]", "result": "W (Medium and weak hits were defined as compounds giving a cell fluorescence signal that was between 2 and 3 or 1 and 2 standard deviations, respectively, above untreated control wells)"}, {"measurement": "hit in screen (score)", "setting": "[1]", "result": 1.2}]}, {"compound": "Terbutaline hemisulfate", "values": [{"measurement": "% YFP quench", "setting": "[3]", "result": 100, "unit": "%"}, {"measurement": "hit in screen (class letter)", "setting": "[1]", "result": "W (Medium and weak hits were defined as compounds giving a cell fluorescence signal that was between 2 and 3 or 1 and 2 standard deviations, respectively, above untreated control wells)"}, {"measurement": "hit in screen (score)", "setting": "[1]", "result": 1.3}]}]}
